Reference: patent US8802597B2, “Herbicidal pyrimidines” (E I du Pont de Nemours and Company, priority 2003, dated 2014)

Tested on: winter barley (Hordeum vulgare)
Experiment: Test D pre/postemergence
Type: in vivo
Settings: scale 0 to 100 (100 = complete control)
Summary of the method: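 Seeds planted and treated preemergence with test chemicals in a non-phytotoxic solvent mixture containing surfactant; postemergence sprays, same formulation, applied concurrently to plants 2 to 18 cm tall (1- to 4-leaf stage). Kept in a controlled growth environment 15 to 25 days, then visually rated against controls on a 0 to 100 scale (0 no effect, 100 complete control).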

Compound	Plant response rating, Barley (Postemergence, 125 g ai/ha)	Plant response rating, Barley (Postemergence, 250 g ai/ha)	Plant response rating, Barley (Preemergence, 125 g ai/ha)	Plant response rating, Barley (Preemergence, 250 g ai/ha)	Plant response rating, Barley (Postemergence, 62 g ai/ha)	Plant response rating, Barley (Preemergence, 62 g ai/ha)
Nc1nc(C2CC2)nc(C=O)c1Br [Compound 26]	45	50	25	35	–	–
COC(=O)c1nc(C2CC2C)nc(N)c1Br (stereo not shown) [Compound 28]	40	40	25	45	20	10
